{"source": "paper PMC11219860", "about": "“A chemogenetic approach for dopamine imaging with tunable sensitivity” (Nature Communications, 2024)", "key": {"dLight1.3b": {"system": "dLight1.3b", "test": "Two-photon dLight1.3b imaging in acute brain slices", "set-up": "species or system mouse", "description": "Coronal brain slices (240 µm) containing the striatum and PFC were prepared from AAV-injected mice after 3–4 weeks of viral expression. Briefly, mice were deeply anesthetized with isoflurane and trans-cardially perfused with ice-cold cutting solution containing (in mM): 75 NaCl, 50 sucrose, 6 MgCl2, 2.5 KCl, 1.2 NaH2PO4, 0.1 CaCl2, 25 NaHCO3, and 2.5 D-glucose (bubbled with 5% CO2 in O2). The brain was quickly removed and sectioned using a vibrating blade microtome (VT1200S; Leica) before slices were transferred to an incubation chamber filled with artificial cerebrospinal fluid (ACSF) containing (in mM): 126 NaCl, 2.5 KCl, 1.2 MgCl2, 1.2 NaH2PO4, 2.5 CaCl2, 21.4 NaHCO3, 11.1 D-glucose and 10 µM MK-801 (34 °C, bubbled with 5% CO2 in O2, pH 7.4). After 45 min equilibration, slices were individually transferred to a recording chamber for 2 P imaging. NMDA, AMPA, GABA-A, nicotinic, and muscarinic receptors were blocked using 10 µM MK801, 10 µM DNQX, 100 µM picrotoxin, 1 µM DHBE, and 0.3 µM scopolamine, respectively. Changes of dLight fluorescence were measured by 2 P laser scanning microscopy, using a custom-built BX51WI microscope (Olympus). Excitation (920 nm) was provided by a pulsed Ti:Sapphire laser (Chameleon Ultra I; Coherent) and scanned using a pair of X-Y galvanometer mirrors (6215; Cambridge Technology). Emission was collected by a water immersion objective (60x, N.A. 1.00; Olympus) and filtered (ET680sp and ET525/50m-2P; Chroma) before detection by GaAsP photomultiplier tube (PMT, H10770PA-40; Hamamatsu). The temporal kinetics of fluorescence changes were captured using fast acquisition speed (2 kHz), ‘spot photometry’ (Toronado; B.W. Strowbridge), by scanning the laser around a circular path ([…] diameter) centered at the tip of the stimulating electrode or iontophoresis pipette which was visualized in the red channel (ET620/60 m; Chroma). The spatial dynamics of dLight fluorescence were captured by rasterized movie acquisition (30 × 40 µm, 3 Hz) and analyzed using ImageJ. Exogenous DA was applied by iontophoresis, using a thin-walled glass pipette filled with DA (1 M) and sulforhodamine 101 (300 µM), and ejected by short pulses of positive current ( + 20 to +200 nA, 5 ms) with a negative retention current to prevent DA leakage (−10 to −15 nA). Endogenous DA release was evoked by electrical stimulation using a double-tipped electrode pulled from septum theta glass capillaries (WPI), visualized with sulforhodamine 101 (10 µM). A single pulse (10 µA, 0.5 ms) was used to evoke DA release in striatal slices, while a train of stimuli (5 × 20 µA at 25 Hz) was used in cortical slices. Changes of fluorescence are expressed as ∆F/F0, wherein baseline fluorescence (F0) was measured from the 300 ms before DA stimulation in spot photometry measurements, or defined as the average of 10 frames preceding stimulation in rasterized movies. Peak ∆F/F0 was calculated by maximum peak detection from the time period following stimulation ( ~ 500 ms) or from the rasterized frame immediately following stimulation. Data were analyzed in AxoGraph (J. Clements) and ImageJ."}, "msDRD1": {"molecular_target": "T1, msDRD1 (Mus musculus, UniProt Q61616)", "T1 construct": "expressed in transfected cells; host or cells: HEK293T", "T1 sequence (Q61616 whole entry)": "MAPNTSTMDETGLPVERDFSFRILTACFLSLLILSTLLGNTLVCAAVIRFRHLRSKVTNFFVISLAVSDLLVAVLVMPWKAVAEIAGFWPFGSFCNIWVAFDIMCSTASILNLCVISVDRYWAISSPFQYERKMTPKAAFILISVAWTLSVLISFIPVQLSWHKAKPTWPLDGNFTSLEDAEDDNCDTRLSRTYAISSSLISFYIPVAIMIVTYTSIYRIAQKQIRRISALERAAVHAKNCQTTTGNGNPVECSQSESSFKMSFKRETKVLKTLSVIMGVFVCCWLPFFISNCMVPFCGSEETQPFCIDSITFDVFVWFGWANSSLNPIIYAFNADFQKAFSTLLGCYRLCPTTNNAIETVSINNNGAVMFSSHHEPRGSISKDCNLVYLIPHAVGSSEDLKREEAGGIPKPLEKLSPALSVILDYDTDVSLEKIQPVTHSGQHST", "conditions": "cited from earlier work"}}, "data": [{"smiles": "C[C@H]1c2cccc(C(C)(C)O)c2C[C@H](CO)N1C(=O)Cc1c(Cl)cccc1Cl", "note": "[DETQ, 2-(2,6-dichlorophenyl)-1-((1S,3R)-3-(hydroxymethyl)-5-(2-hydroxypropan-2-yl)-1-methyl-3,4-dihydroisoquinolin-2(1H)-yl)ethan-1-one]", "values": [{"measurement": "fluorescence changes evoked by train of stimuli in PFC slices", "setting": "dLight1.3b; 5 × 20 µA, 0.5 ms, 25 Hz, DETQ", "result": "unmask small increases"}, {"measurement": "area of dLight1.3b ∆F/F0 >2σ noise", "setting": "dLight1.3b; DA iontophoresis 20 nA, DETQ 200 nM", "result": "significantly increased"}, {"measurement": "peak ∆F/F0 and area (>2σ noise) evoked by single electrical stimulation", "setting": "dLight1.3b; dorsal striatum slices, 10 µA, 0.5 ms, DETQ", "result": "significantly enhanced"}, {"measurement": "decay time of fluorescence changes (spot photometry)", "setting": "dLight1.3b; ejection current 50 nA, DETQ 200 nM", "result": "slowed"}, {"measurement": "increase of dLight sensitivity (peak ∆F/F0 over ejection currents)", "setting": "dLight1.3b; striatal slices, DA iontophoresis, DETQ 200 nM", "result": 2.6, "unit": "fold"}, {"measurement": "Kb", "setting": "msDRD1", "result": 312, "unit": "nM"}, {"measurement": "fold less potent on msDRD1 than on hmDRD1", "setting": "msDRD1", "result": "> 30", "unit": "fold"}, {"measurement": "selectivity for human vs mouse D1 in potentiator mode", "setting": "msDRD1; potentiation of dopamine induced activation of cAMP, ref Hao et al., 2019, Wang et al., 2018", "result": 30, "unit": "x"}, {"measurement": "partial potentiation of dopamine (% of max potentiation)", "setting": "msDRD1; rodent (rat or mouse), ref Hao et al., 2019, Wang et al., 2018", "result": "45-53%"}]}]}
